Laboratory results as given in PubChem BioAssay (NCI).
Where “and” joins values, the source holds several entries; their conditions need not be identical. Equal values may be shown once.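 Each compound was tested at five concentrations against cells in 96-well plates for 48 hours. At the GI50, growth is halved. TGI: total growth inhibition.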

Columns and labels:
Test in all cases: NCI tumour cell line growth inhibition, 48 h
[1] = test system: ACHN renal
[2] = test system: DMS 114 small cell lung
[3] = test system: HOP-18 NSCLC
[4] = test system: HT29 colon
[5] = test system: IGROV1 ovarian
[6] = test system: M19-MEL melanoma
[7] = test system: NCI-H226 lung
[8] = test system: SF-295 CNS
[9] = test system: SNB-78 CNS
[10] = test system: MCF7 breast
[11] = test system: NCI/ADR-RES ovarian
[12] = test system: PC-3 prostate

SMILES | TGI [1] [µM] | TGI [2] | TGI [3] | TGI [4] [µM] | TGI [5] [µM] | TGI [6] | TGI [7] [µM] | TGI [8] [µM] | TGI [9] | TGI [10] [µM] | TGI [11] | GI50 [1] [µM] | GI50 [5] [µM] | GI50 [11] | GI50 [8] [µM] | GI50 [10] [µM] | GI50 [12] [µM] | TGI [12] | GI50 [3] | GI50 [9] [µM]
Cn1cnc([N+](=O)[O-])c1Sc1nc2cc(Cl)c(F)cc2[nH]1 | 34.1 | 20.7 µM | 29 µM | 47.3 | 35.8 | 23.9 µM | 33 | > 100 | 25.9 µM | – | – | – | – | – | – | – | – | – | – | –
Cc1c2cc[nH]c(C(F)(F)F)c2cc2c1nc1ccccc12 | – | > 125 µM | – | > 125 | > 125 | > 125 µM | > 125 | > 125 | > 125 µM | > 125 | > 125 µM | – | – | – | – | – | – | – | – | –
O=C(Nc1cccc2ccccc12)Oc1ccccc1C1CCCCC1 | – | 41.9 µM | 33.2 µM | 34.1 | 51.2 | 43.4 µM | 32.7 | 31.3 | 57.9 µM | – | – | – | – | – | – | – | – | – | – | –
COC(=O)C(=O)C(C(=O)Nc1cccc(C)c1C)C1Sc2ccccc2NC1=O (configuration not stated) | > 25 | 19 µM | > 25 µM | > 25 | > 25 | > 25 µM | > 25 | > 25 | > 25 µM | – | – | – | – | – | – | – | – | – | – | –
FC(F)(F)c1ccc(-c2nc(-c3nc4cc(Cl)c(Cl)cc4[nH]3)c3ccccn23)cc1 | 28.5 | – | – | – | > 100 | – | – | > 100 | – | – | > 100 µM | 3.9 | 16.1 | 6.1 µM | 3.9 | – | – | – | – | –
COc1cc2c(cc1OCCCN1CCN(CCCOc3cc4c(cc3OC)C(=O)N3CCC[C@H]3C=N4)CC1)C=CC(C)(C)O2 | – | – | – | – | > 100 | – | – | – | – | 1.69 | 5.31 µM | – | 0.606 | 2.41 µM | – | 0.423 | 0.804 | 2.09 µM | – | –
CCC1(O)CC(OC2CC(N(C)C)C(OC3CC4OC5CC(=O)C(C)OC5OC4C(C)O3)C(C)O2)c2c(cc3c(c2O)C(=O)c2c(O)ccc(O)c2C3=O)C1C(=O)OC (configuration not stated) | – | 0.0431 µM and 0.0473 µM | 0.0821 µM and 0.0764 µM | – | – | 0.0705 µM and 0.0241 µM | – | – | 0.854 µM and 0.536 µM | – | 0.0943 µM and 0.224 µM and 0.171 µM | 0.000823 | – | 0.00629 µM and 0.0109 µM and < 0.0105 µM | – | – | – | 0.0576 µM and 0.15 µM | 0.00875 µM and 0.0163 µM | 0.0126
O=c1cnn(C/C=C\CO)c(=O)[nH]1 | > 100 | – | – | – | > 100 | – | > 100 | – | – | > 100 | > 100 µM | – | – | – | – | – | – | > 100 µM | – | –
